The text below walks through data of patent US6160017A, “Preventives and remedies for ulcerous colitis and/or crohn's disease” (Zaidan Hojin Biseibutsu Kagaku Kenkyu Kai, priority 1997, dated 2000).

In data set [1] the test system is acetic acid-induced rat ulcer models. Briefly: Effect on acetic acid-induced rat ulcer model. Type of data set: in vivo, rat (male Donryu:CRJ). To be noted: 50 mg/kg i.v. Here is the method:
Morbid models were prepared by starving male Donryu:CRJ rats (aged 6 weeks; 9 rats per group) for 24 hours, incising each of their abdomens under etherization to ligate its colon, injecting a 10% aqueous solution (2 ml) of acetic acid into the digestive tract lumen thereof by means of a syringe equipped with a 25 G needle, further injecting air (3 ml) to discharge the acetic acid solution, and then suturing and closing the operated part. Conagenin was intravenously administered to the rats in a dose of 50 mg/kg 24 hours before the preparation of the models and right after the operation. After 24 hours, the rat models were slaughtered to take out their colons and recta. These organs were incised by 10 cm above from the anus to remove their contents. Thereafter, the weight of the organs was measured, and moreover the degree of mucosal disorder was visually observed. The degree of the tissue damage was evaluated using the grades "light", "medium" and "serious".

The test system of data set [2] is trinitrobenzenesulfonic acid (TNBS)-induced rat colitis models. The data set can be described thus: Effect on trinitrobenzenesulfonic acid (TNBS)-induced rat colitis model. Type of data set: in vivo, rat (male Wister). To be noted: for Wet weight of large intestine: conagenin 50 mg/kg i.v., salazosulfapyridine 300 mg/kg p.o., daily, untreated 1.571 ± 0.161, saline 1.723 ± 0.167; for Stage of lesion: number of rats that reached a subacute stage: saline group 4 rats; for Depth of invasion of the ulcer (lamina propria mucosae and submucosal tissue): saline group medium; for Percent change in wet weight against untreated group: untreated 100, TNBS and saline 110. Here is the method:
Morbid models were prepared by starving male Wister rats (aged 6 weeks; 7 rats per group) for 48 hours, inserting a catheter by 8 cm through the anus of each of the rats under anesthesia with pentobarbital to inject a solution (0.25 ml) with 2,4,6-trinitrobenzenesulfonic acid dissolved in 50% ethanol in a proportion of 80 mg/ml, stopping the anus for about 10 minutes and then allowing it to stand.
Conagenin was intravenously administered to the rats in a dose of 50 mg/kg. Salazosulfapyridine was orally administered as a control agent in a dose of 300 mg/kg. The administration of these test agents was carried out every day from the day before the administration of 2,4,6-trinitrobenzenesulfonic acid to the fourth day after the administration. The rat models were slaughtered at the fifth day after the administration to determine a change in the wet weight of their recta (8 cm) and make a judgment on the basis of the pathological findings thereof.

The nature of data set [3]: Single administration (acute) toxicity test on rats. Type of data set: in vivo. Particulars: in vivo, rat. Here is the method: (§1) Conagenin (500 mg/kg) was singly administered intravenously, intraperitoneally, subcutaneously or orally to mice and rats to investigate its toxicity.
Another data set concerns Rat. Described as above. Type of data set: in vivo. Here is the method:
as §1

The nature of data set [4]: Single administration toxicity test on mice. It counts as in vivo, mouse. To be noted: in vivo; mouse, intravenous. How it is done:
as §1

The next data set relates to Mouse. Briefly: Single administration toxicity test on mice. It counts as in vivo. How it is done: as §1
The subject of another data set is rats. Briefly: 3-month repeated administration toxicity test on rats. Particulars: 3 months. Type of data set: in vivo, rat (male Wister). Here is the method:
Conagenin (100 mg/kg) was intraperitoneally administered repeatedly for 3 months to male Wister rats (aged 6 weeks; 3 rats per group) to evaluate its toxicity using a group dosed with physiological saline as a control. Tests were made for general symptoms, urinalysis, blood test, blood biochemical test, autopsy, organ weight and pathological test.
The judgment of the test items was conducted in accordance with "Guideline of Toxicity Testing Methods".

The test system of a further data set is patients. Particulars: double blind test; cited from earlier work.
[5] abbreviates: 24 h before and right after operation, 9 rats per group.
Setting [6] is: pathological findings of colon, 7 rats per group.
The mark [7] stands for this setting: 100 mg/kg i.p., compared with saline control.

One may read the LD50 as the dose at which mortality reaches 50%. A higher LD50 goes with lower toxicity. As for `C[C@@H]([C@@H](C)O)[C@@H](O)C(=O)N[C@@](C)(CO)C(=O)O` [Conagenin, (2S)N-[(2R,3S,4R)2,4-dihydroxy-3-methyl-pentanoyl]-2-methylserine], in data set [1] (setting [5]), the “Number of animals, grade of inflammation Light (1)” value stood at 5; the “Number of animals, grade of inflammation Medium (2)” value amounted to 3; the “Number of animals, grade of inflammation Serious (3)” value was 1. Moreover, the “Grade of inflammation, mean ± SD” value in data set [1] (control (physiological saline) 2.38 ± 0.67) is 1.50 ± 0.73. The “Suppressing effect on the inflammatory ulcer compared with the control group” value in data set [1] (in words) is “high suppressing effect”. Further, in data set [2], the “Inflammatory change (in words)” value was “exactly the same good result”; the “Wet weight of large intestine” value was 1.572 ± 0.099 g; the “Stage of lesion: number of rats that reached a subacute stage” value amounted to 2 rats; the “Depth of invasion of the ulcer (lamina propria mucosae and submucosal tissue)” value is on record as “light”. The “Percent change in wet weight against untreated group” value in data set [2] came out at 100%. Also, the “Therapeutic effect compared with salazosulfapyridine” value in data set [2] (conagenin 50 mg/kg i.v. vs salazosulfapyridine 300 mg/kg p.o.) is “marked therapeutic effect”. Also, the “Increase in wet weight of the large intestine (in words)” value in data set [2] (control (saline) 10%) is on record as “No increase was observed”. In data set [2] (setting [6]), the “Depth of invasion on lamina propria mucosae: number of animals, light” value is reported as 2; the “Depth of invasion on lamina propria mucosae: number of animals, no marked change” value was 5; the “Depth of invasion on submucosal tissue: number of animals, no marked change” value is 7; the “Depth of invasion on tunica muscularis: number of animals, no marked change” value is 7. For the same molecule, in data set [2] (setting [6]), the “Findings of ulceration: number of animals, light” value stood at 2; the “Findings of ulceration: number of animals, no marked change” value was 5; the “Inflammatory change: number of animals, light” value amounted to 1; the “Inflammatory change: number of animals, no marked change” value is listed as 6. Further, in data set [3] (ip, intraperitoneal), the 50% lethal dose (LD50) was more than 500 mg/kg. For the same molecule, the 50% lethal dose (LD50) in data set [3] (sc, subcutaneous) is more than 500 mg/kg. Moreover, the LD50 in data set [3] (intravenous) was more than 500 mg/kg. Further, the 50% lethal dose (LD50) in data set [3] (oral) was more than 500 mg/kg. The median lethal dose (LD50) in data set [3] (acute toxicity, rats, oral, subcutaneous, intraperitoneal and intravenous) was not below 500 mg/kg. In the data set on Rat (rat, in vivo, 500 mg/kg), the “Abnormal finding of general symptoms” value was “no abnormal finding of general symptoms”. Moreover, the Death entry in the data set on Rat (rats, single 500 mg/kg) is given as “No death was observed”. In addition, the 50% lethal dose (LD50) in data set [4] was more than 500 mg/kg. In the data set on Mouse (mice, single 500 mg/kg), the Death entry is recorded as “No death was observed”. The “Abnormal finding of general symptoms” value with Mouse (mouse, in vivo, 500 mg/kg) is reported as “no abnormal finding of general symptoms”. In addition, the Death entry in the data set with rats (100 mg/kg i.p.) is listed as “None”. In the data set on rats (setting [7]), the “All items tested (general symptoms, urinalysis, blood test, blood biochemical test, autopsy, organ weight, pathological test)” value is listed as “no significant change was observed”; the Blood biochemical test entry is “No marked change”; the General symptoms entry was “No marked change”; the Hematological test entry was “No marked change”. In the data set with rats (setting [7]), the Pathological test result is “No marked change” and the Urinalysis result was “No marked change”. Also, the Development of toxicity result in the data set on rats (efficacious dose of 100 mg/kg, rats) is “no development of toxicity was observed”.

On to `Nc1ccc(O)c(C(=O)O)c1` [mesalazine], for which, in the data set with patients, the Generalized amelioration rate is on record as 68.8% and the “Incidence rate of the side effect” value is on record as 11.5%.

Consider `O=C(O)c1cc(/N=N/c2ccc(S(=O)(=O)Nc3ccccn3)cc2)ccc1O` [salazosulfapyridine], for which, in data set [2], the “Wet weight of large intestine” value is 1.641 ± 0.140 g; the “Stage of lesion: number of rats that reached a subacute stage” value is listed as 4 rats; the “Depth of invasion of the ulcer (lamina propria mucosae and submucosal tissue)” value is “medium”; the “Percent change in wet weight against untreated group” value turned out to be 104%. Further, the “Increase in wet weight of the large intestine” value in data set [2] (control (saline) 10%) came to 4%. Besides, in data set [2] (setting [6]), the “Depth of invasion on lamina propria mucosae: number of animals, light” value is listed as 2; the “Depth of invasion on lamina propria mucosae: number of animals, medium” value came to 2; the “Depth of invasion on lamina propria mucosae: number of animals, no marked change” value amounted to 3; the “Depth of invasion on submucosal tissue: number of animals, light” value was 2. In data set [2] (setting [6]), the “Depth of invasion on submucosal tissue: number of animals, no marked change” value is 5; the “Depth of invasion on tunica muscularis: number of animals, no marked change” value is 7; the “Findings of ulceration: number of animals, light” value was 2; the “Findings of ulceration: number of animals, medium” value stood at 2. Also, in data set [2] (setting [6]), the “Findings of ulceration: number of animals, no marked change” value came out at 3; the “Inflammatory change: number of animals, light” value was found to be 2; the “Inflammatory change: number of animals, medium” value is on record as 1; the “Inflammatory change: number of animals, no marked change” value was determined as 4. For the same molecule, in the data set with patients, the Generalized amelioration rate was 63.5% and the “Incidence rate of the side effect” value is 28.1%.
